Assay results as given in patent US10645928B2, “Pesticidally active polycyclic derivatives with sulfur containing substituents” (Syngenta Participations AG, priority 2014, dated 2020).

Experiments:
Format in all cases: in vivo
[1] = system: Diabrotica balteata (Corn Root Worm); assay: Example B2: Diabrotica balteata, sprayed maize sprouts, mortality and growth inhibition; settings: 96 h, application rate of 200 ppm, L2 larvae, 4 days after infestation, read-out: effect in at least one of the two categories (mortality or growth inhibition)
Procedure: Maize sprouts placed onto an agar layer in 24-well microtiter plates were treated with aqueous test solutions prepared from 10,000 ppm DMSO stock solutions by spraying. After drying, the plates were infested with L2 larvae (6 to 10 per well). The samples were assessed for mortality and growth inhibition in comparison to untreated samples 4 days after infestation.

[2] = system: Euschistus heros (Neotropical Brown Stink Bug); assay: Example B5: Euschistus heros, sprayed soybean leaves, mortality; settings: 120 h, application rate of 200 ppm, N2 nymphs, 5 days after infestation
Procedure: Soybean leaves on agar in 24-well microtiter plates were sprayed with aqueous test solutions prepared from 10,000 ppm DMSO stock solutions. After drying the leaves were infested with N2 nymphs. The samples were assessed for mortality 5 days after infestation.

[3] = system: Diabrotica balteata (Corn Root Worm); assay: Example B3: Diabrotica balteata, sprayed maize sprouts, mortality; settings: 96 h, application rate of 200 ppm, L2 larvae, 4 days after infestation
Procedure: Maize sprouts placed onto an agar layer in 24-well microtiter plates were treated with aqueous test solutions prepared from 10,000 ppm DMSO stock solutions by spraying. After drying, the plates were infested with L2 larvae (6 to 10 per well). The samples were assessed for mortality 4 days after infestation.

[4] = system: Spodoptera littoralis (Egyptian Cotton Leaf Worm); assay: Example B17: Spodoptera littoralis, sprayed cotton leaf discs, mortality, anti-feeding effect and growth inhibition; settings: foliar, 72 h, application rate of 200 ppm, L1 larvae, 3 days after infestation, read-out: control (at least one of mortality, anti-feedant effect, growth inhibition)
Outline: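 Cotton leaf discs on agar sprayed with aqueous dilutions of 10,000 ppm DMSO stocks, dried, then infested with five L1 larvae. Mortality, anti-feeding and growth inhibition scored against untreated discs 3 days after infestation. Control recorded when any one category exceeds the untreated sample.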

[5] = system: Aedes aegypti (Yellow Fever Mosquito); assay: Example B23: Aedes aegypti, dry deposits in 12 well tissue culture plates, control; settings: application rate of 200 ppm in ethanol, adult females, after 48 h and/or 24 h
Procedure: Test solutions, at an application rate of 200 ppm in ethanol, were applied to 12 well tissue culture plates. Once the deposits were dry, five, two to five day old adult female Aedes aegypti were added to each well, and sustained with a 10% sucrose solution in a cotton wool plug. Assessment of knockdown was made one hour after introduction, and mortality was assessed at 24 and 48 hours after introduction.

[6] = system: Spodoptera littoralis (Egyptian Cotton Leaf Worm); assay: Example B20: Spodoptera littoralis, compound in agar absorbed by lettuce roots, mortality; settings: 144 h, test rate of 12.5 ppm, uptake by lettuce roots, Spodoptera eggs, 6 days after infestation
Outline: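 Compound from a 10,000 ppm DMSO stock mixed into agar; lettuce grown on it for 7 days to take up compound via roots, then leaves cut into lid plate. Spodoptera eggs applied on humid blotting paper; mortality scored 6 days after infestation.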

[7] = system: Myzus persicae (Green Peach Aphid); assay: Example B8: Myzus persicae, sprayed sunflower leaf discs, mortality; settings: foliar, 144 h, application rate of 200 ppm, leaf disc spray, aphid population of mixed ages, 6 days after infestation
Procedure: Sunflower leaf discs were placed onto agar in a 24-well microtiter plate and sprayed with aqueous test solutions prepared from 10,000 ppm DMSO stock solutions. After drying, the leaf discs were infested with an aphid population of mixed ages. The samples were assessed for mortality 6 days after infestation.

[8] = system: Plutella xylostella (Diamond Back Moth); assay: Example B10: Plutella xylostella, treated artificial diet, growth inhibition; settings: 120 h, application rate of 200 ppm, L2 larvae, 5 days after infestation
Outline: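 Artificial diet treated with aqueous dilutions prepared from 10,000 ppm DMSO stocks, dried, then infested with 10-15 L2 larvae per well. Growth inhibition scored against untreated samples 5 days after infestation.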

[9] = system: Euschistus heros (Neotropical Brown Stink Bug); assay: Example B6: Euschistus heros, sprayed soybean leaves, mortality and growth inhibition; settings: 120 h, application rate of 200 ppm, N2 nymphs, 5 days after infestation, read-out: effect in at least one of the two categories (mortality or growth inhibition)
Procedure: Soybean leaves on agar in 24-well microtiter plates were sprayed with aqueous test solutions prepared from 10,000 ppm DMSO stock solutions. After drying the leaves were infested with N2 nymphs. The samples were assessed for mortality and growth inhibition in comparison to untreated samples 5 days after infestation.

[10] = system: Plutella xylostella (Diamond Back Moth); assay: Example B12: Plutella xylostella, treated artificial diet, mortality; settings: 120 h, application rate of 200 ppm, L2 larvae, 5 days after infestation
Procedure: 24-well microtiter plates with artificial diet were treated with aqueous test solutions prepared from 10,000 ppm DMSO stock solutions by pipetting. After drying, the plates were infested with L2 larvae (10 to 15 per well). The samples were assessed for mortality 5 days after infestation.

[11] = system: Spodoptera littoralis (Egyptian Cotton Leaf Worm); assay: Example B18: Spodoptera littoralis, compound in agar absorbed by lettuce roots, mortality, anti-feedant effect and growth inhibition; settings: 144 h, test rate of 12.5 ppm, uptake by lettuce roots, Spodoptera eggs, 6 days after infestation, read-out: effect in at least one of the three categories (mortality, anti-feeding, or growth inhibition)
Outline: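 Compound from 10,000 ppm DMSO stock mixed into agar; lettuce seeds grew 7 days, taking compound up via roots into the lid plate. Cut leaves infested with Spodoptera eggs; mortality, anti-feedant effect and growth inhibition scored against untreated samples 6 days after infestation.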

[12] = system: Thrips tabaci (Onion Thrips); assay: Example B22: Thrips tabaci, sprayed sunflower leaf discs, mortality; settings: foliar, 144 h, application rate of 200 ppm, thrips population of mixed ages, 6 days after infestation
Procedure: Sunflower leaf discs were placed on agar in 24-well microtiter plates and sprayed with aqueous test solutions prepared from 10,000 ppm DMSO stock solutions. After drying the leaf discs were infested with a thrips population of mixed ages. The samples were assessed for mortality 6 days after infestation.

[13] = system: Spodoptera littoralis (Egyptian Cotton Leaf Worm); assay: Example B14: Spodoptera littoralis, sprayed cotton leaf discs, anti-feeding effect; settings: foliar, 72 h, application rate of 200 ppm, L1 larvae, 3 days after infestation
Outline: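 Cotton leaf discs on agar sprayed with aqueous test solutions made from 10,000 ppm DMSO stocks, dried, then infested with five L1 larvae. Anti-feeding effect scored 3 days after infestation against untreated discs; control counted when anti-feedant effect exceeds untreated.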

CCS(=O)(=O)c1cc(C(C#N)CCBr)cnc1-c1cn2cnc(C(F)(F)F)cc2n1 (stereo not shown) [Compound P13, 4-bromo-2-[5-ethylsulfonyl-6-[7-(trifluoromethyl)imidazo[1,2-c]pyrimidin-2-yl]-3-pyridyl]butanenitrile]
≥ 80%: percent effect (mortality or growth inhibition) at 200 ppm [1] | mortality at 200 ppm [2] | mortality at 200 ppm [3] | percent control (mortality, anti-feedant effect or growth inhibition) at 200 ppm [4] | pest or weed control at 200 ppm [5] | mortality at 12.5 ppm [6] | mortality at 200 ppm [7] | inhibition at 200 ppm [8] | percent effect (mortality or growth inhibition) at 200 ppm [9] | mortality at 200 ppm [10] | percent effect (mortality, anti-feeding or growth inhibition) at 12.5 ppm [11] | mortality at 200 ppm [12] | pest or weed control at 200 ppm [13]
